Literature values in US20100284970A1, “BEN[…] H1 RECEPTOR AND/OR NS4B PROTEIN” (AUSPEX PHARMACEUTICALS, INC., priority 2009, published 2010).

Target: T1, hepatitis C virus NS4B protein (Hepatitis C virus genotype 1b, UniProt Q9WMX2)
T1 construct: hepatitis C virus NS4B protein
Settings: Einav et al., Nature Biotechnology, 2008, 26, 1019-1027

T1 sequence (Q9WMX2 1712-1972): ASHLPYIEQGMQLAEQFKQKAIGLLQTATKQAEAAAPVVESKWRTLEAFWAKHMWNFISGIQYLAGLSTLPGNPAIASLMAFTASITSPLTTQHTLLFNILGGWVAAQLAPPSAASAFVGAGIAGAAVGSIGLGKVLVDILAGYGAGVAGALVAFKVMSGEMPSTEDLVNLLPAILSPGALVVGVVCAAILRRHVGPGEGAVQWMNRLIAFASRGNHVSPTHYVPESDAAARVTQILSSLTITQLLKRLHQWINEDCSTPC

Clc1ccc(Cn2c(CN3CCCC3)nc3ccccc32)cc1 [Clemizole, 1-[(4-chlorophenyl)methyl]-2-(1-pyrrolidinylmethyl)benzimidazole]
binding of hepatitis C virus RNA to hepatitis C virus NS4B protein: inhibit the binding of hepatitis C virus RNA to hepatitis C virus NS4B protein
